Results taken from patent publication US8829175B2, “Nucleic acids encoding polyvalent protein complexes” (IBC Pharmaceuticals, Inc., priority 2003, dated 2014).
Values belong to the molecule of their own block, whether it stands above or below them. Starred links: 1 amine or outer side, 2 acyl side, 3 side chain; linkers in the order of their positions; H or OH if unused. Non-standard residues stand in square brackets, D forms with d. Residues, ends and D or L forms follow the SMILES beside them. Groups on a side chain read outwards from the residue. *: point of attachment. DOTA = O=C(O)CN1CCN(CC(=O)O)CCN(CC(=O)*)CCN(CC(=O)O)CC1; NH(2-(imidazol-4-yl)ethyl) = c1ncc(CCN*)[nH]1; Suc = O=C(CCC(=O)[*:2])[*:1]; X1 = NC(=S)NN=CC(=O)*

Legend:
[1] = system: GW-39 (CEA positive) tumors; design: species or system nude mice; conditions: mouse, in vivo
Protocol: The utility of BS14HP for tumor pretargeting was evaluated in GW-39 tumor-bearing mice using a bivalent HSG peptide (IMP-241) labeled with ^111In. IMP-241 has a structure of DOTA-Phe-Lys(HSG)-D-Tyr-Lys(HSG)-NH2, where the N-terminal amino group of Phe is linked to a DOTA and the epsilon amino group of each lysine is derivatived with an HSG group. The tetrapeptide backbone (Phe-Lys-(D-Tyr)-Lys) contains a d-amino acid (D-Tyr) and the carboxyl group of the C-terminal lys is amidated.
(§1) The results from this analysis were compared with those of chemically linked hMN-14×679 (Fab′×Fab′) and BS1.5H (bispecific diabody). Nude mice bearing GW-39 (CEA positive) tumors were pre-targeted with BS14HP, BS1.5H or hMN-14×679. Initially, the bio-distribution was followed with ^131I-labeled bispecific agent. The tumor residence and blood clearance of ^131I-BS14HP is depicted in FIG. 7. As determined in preliminary experiments, the time interval between administration of bispecific targeting agent and of ^111In-IMP241 peptide is the amount of time required for the former to clear the blood to a concentration of 1% ID/g or less. […] IMP-241 (Immunomedics, Inc), a peptide containing two HSG groups and a DOTA moiety, was loaded with ^111Indium and injected in pre-targeted mice. The bio-distribution of the ^111In-IMP-241 was examined at 3 hours after injection (FIG. 8A) and the tumor/non-tumor ratios are shown in FIG. 8B.

[2] = system: human colonic tumor (GW-39) xenograft; assay: in vivo; design: species or system nude mice; conditions: mouse
Protocol: (§2) IMP-245 was prepared and labeled using standard techniques known in the art. See, for example, published application US20030198595 (now issued U.S. Pat. No. 7,138,103), which is hereby incorporated by reference in its entirety. The experiment used 3 groups of 15 mice, each of which was necropsied, and 1 group of 5 mice that was imaged. Three groups of mice were administered 6 μCi ^125I-hBS14 (40 μg, 5.0×10^−10 moles). In the last group (imaging group), 3 mice received unlabeled hBS14. The amount of ^99mTc-IMP-245 administered to all the mice was ˜40 μCi (92 ng, 5.0×10^−11 moles) for a bispecific:peptide ratio of 10:1. […] Due to differences in tumor growth rates, only 20 mice were initially available for administration of hBS14. Fifteen mice were used to fill out Group II while 5 mice were used for Group I. The remaining mice (including the imaged mice) were injected one week later. Not all the mice implanted with GW-39 tumors developed usable tumors and, therefore, Group I only had 10 mice and were sacrificed at 1 hr post-peptide injection and 24 hrs post-injection.

in vivo = assay: in vivo; design: species or system nude mice; conditions: nude, mouse
Protocol: as §2

[3] = system: WI2 IgG, an anti idiotypic antibody to hMN-14; assay: BIAcore WI2 molar binding ratio of bispecific protein captured on HSG sensorchip; design: species or system rat; conditions: protein bound to HSG sensorchip, then WI2; theoretical maximum 1.0 for two CEA binding sites
Protocol: The analysis step is as follows. Samples of the culture media were diluted 1:5 in EB buffer (150 mM NaCl; 50 μM EDTA; 0.005% surfactant P20; 10 mM HEPES, pH 7.4) and injected ([…]) over a high-density, HSG-coupled sensorchip in a BIAcoreX system. Following injection of the diluted media, EB containing 20 μg/ml of WI2 IgG, an anti idiotypic antibody to hMN-14, was injected ([…]) over the sensorchip to confirm bispecific binding. The initial binding slopes were used to quantitate yields. Seven of the nine zeocin resistant clones tested produced bispecific protein with a yield of up to 3 mg per liter of culture media.
The W12:BS14HP molar binding ratio can be derived by comparison of the response units (RU) attained from BS14HP binding to the HSG sensorchip with the further RU increase from W12 binding to BS14HP with normalization for the respective molecular weights. Several BS14HP preps were analyzed with the measured ratio ranging from 0.8-0.9. […]
If the W12 binding is allowed to approach saturation, the stoichiometry of the binding can be determined. […] As each increase in RU level is directly proportional to the mass bound, the WI2:bsAb molar binding ratio can be calculated using the formula (RUWI2/RUhBS14)×(MWhBS14/MWWI2). hBS14 was designed to be bivalent for CEA (and monovalent for HSG) and as such should bind W12 (also bivalent) with a 1:1 molar ratio. […]

[4] = Blood clearance of radioiodinated bispecific agents in GW-39 tumor-bearing nude mice; type: in vivo; conditions: 131I-labeled bispecific agent, preliminary experiments
Text: as §1

pretargeting experiments performed again with other peptides [1]: same results
Molecule: NC(=O)[C@@H](CCCCNC(=O)CNC(=O)CCC(=O)NCCc1cnc[nH]1)NC(=O)[C@@H](Cc1ccc(O)cc1)NC(=O)[C@@H](CCCCNC(=O)CNC(=O)CCC(=O)NCCc1cnc[nH]1)NC(=O)[C@@H](Cc1ccccc1)NC(=O)CN1CCN(CC(=O)O)CCN(CC(=O)O)CCN(CC(=O)O)CC1 [IMP284] ({DOTA}-[dF][dK]([Gly-Suc-NH(2-(imidazol-4-yl)ethyl)])[dY][dK]([Gly-Suc-NH(2-(imidazol-4-yl)ethyl)])-NH2)

pretargeting experiments performed again with other peptides [1]: same results
Molecule: NC(=O)[C@@H](CCCCNC(=O)CNC(=O)CCC(=O)NCCc1c[nH]cn1)NC(=O)[C@@H](CCC(=O)O)NC(=O)[C@@H](CCCCNC(=O)CNC(=O)CCC(=O)NCCc1c[nH]cn1)NC(=O)[C@@H](Cc1ccc(O)cc1)NC(=O)CN1CCN(CC(=O)O)CCN(CC(=O)O)CCN(CC(=O)O)CC1 [IMP288] ({DOTA}-[dY][dK]([Gly-Suc-NH(2-(imidazol-4-yl)ethyl)])[dE][dK]([Gly-Suc-NH(2-(imidazol-4-yl)ethyl)])-NH2)

fold less peptide than hBS14 in the tumor [2]: 4.7 fold
fold more IMP-245 in the tumor versus hBS14 [2]: 2.4 fold
fold more IMP-245 than hBS14 in the tumors [2]: Approximately 2 fold
relative amount of actual signal in the tumors, fold less [2]: 13 fold
tumor uptake ([2]; nude, 4 h): 14.53±4.90 % ID/g
tissue uptake at 1 h (in vivo): 36.9 ± 6.42 %ID/g
tissue uptake at 24 h (in vivo): 3.81 ± 0.8 %ID/g
tissue uptake at 24 h (in vivo; 92 ng): 3.71 ± 0.43 %ID/g
tissue uptake at 24 h (in vivo; 92 ng, tumor uptake): 0.3 ± 0.08 %ID/g
tissue uptake at 4 h (in vivo; tumor uptake): 15.9 ± 16.3 %ID/g
Molecule: NC(=O)[C@H](CCCCNC(=O)[C@H](CS)NC(=O)C=NNC(N)=S)NC(=O)[C@H](CCCCNC(=O)CNC(=O)CCC(=O)NCCc1c[nH]cn1)NC(=O)[C@@H](Cc1ccc(O)cc1)NC(=O)[C@H](CCCCNC(=O)CNC(=O)CCC(=O)NCCc1c[nH]cn1)NC(=O)[C@H](Cc1ccccc1)NC(=O)CN1CCN(CC(=O)O)CCN(CC(=O)O)CCN(CC(=O)O)CC1 [IMP-245] ({DOTA}-FK([Gly-Suc-NH(2-(imidazol-4-yl)ethyl)])[dY]K([Gly-Suc-NH(2-(imidazol-4-yl)ethyl)])K([Cys-X1])-NH2; N-terminus and C-terminus assumed)

The next lines start with the molecule.

Molecule: C[C@@H](NC(=O)CN1CCN(CC(=O)O)CCN(CC(=O)O)CCN(CC(=O)O)CC1)C(=O)N[C@H](CCCCNC(=O)CNC(=O)CCC(=O)NCCc1cnc[nH]1)C(=O)N[C@H](CCC(=O)O)C(=O)N[C@H](CCCCNC(=O)CNC(=O)CCC(=O)NCCc1cnc[nH]1)C(N)=O [IMP281] ({DOTA}-[dA][dK]([Gly-Suc-NH(2-(imidazol-4-yl)ethyl)])[dE][dK]([Gly-Suc-NH(2-(imidazol-4-yl)ethyl)])-NH2)
pretargeting experiments performed again with other peptides [1]: same results

B1: BS14HP: bispecific trivalent heterodimer (SEQ ID NO:1 and 2) from Pichia pastoris, two binding sites for CEA and one for HSG (antibody)
heavy: EAEAEFMEVQLVESGGDLVKPGGSLKLSCAASGFTFSIYTMSWLRQTPGKGLEWVATLSGDGDDIYYPDSVKGRFTISRDNAKNSLYLQMNSLRAEDTALYYCARVRLGDWDFDVWGQGTTVSVSSGGGGSDIQLTQSPSSLSASVGDRVTITCKASQDVGTSVAWYQQKPGKAPKLLIYWTSTRHTGVPSRFSGSGSGTDFTFTISSLQPEDIATYYCQQYSLYRSFGQGTKVEIKRLEGGGSEVQLVESGGGVVQPGRSLRLSCSASGFDFTTYWMSWVRQAPGKGLEWIGEIHPDSSTINYAPSLKDRFTISRDNAKNTLFLQMDSLRPEDTGVYFCASLYFGFPWFAYWGQGTPVTVSVDHHHHHH
light: EAEAEFDIQLTQSPSSLSASVGDRVTITCKASQDVGTSVAWYQQKPGKAPKLLIYWTSTRHTGVPSRFSGSGSGTDFTFTISSLQPEDIATYYCQQYSLYRSFGQGTKVEIKRGGGQFMEVQLVESGGGVVQPGRSLRLSCSASGFDFTTYWMSWVRQAPGKGLEWIGEIHPDSSTINYAPSLKDRFTISRDNAKNTLFLQMDSLRPEDTGVYFCASLYFGFPWFAYWGQGTPVTVSGGGGSDIVMTQSPSSLAVSPGERVTLTCKSSQSLFNSRTRKNYLGWYQQKPGQSPKLLIYWASTRESGVPDRFSGSGSGTDFTLTINSLQAEDVAVYYCTQVYYLCTFGAGTKLELKRLDHHHHHH
111In-IMP241 peptide specifically bound to the tumor, compared to mice pretargeted with BS1.5H or hMN14×679 [1]: approximately three-fold
WI2:bsAb molar binding ratio [3]: 0.8-0.9
pre-targeting clearance time (time to clear the blood to 1% ID/g or less) [4]: 24 h
